Assay results: article PMC4411097, “Pachymic Acid Inhibits Growth and Induces Apoptosis of Pancreatic Cancer In Vitro and In Vivo by Targeting ER Stress” (PLoS ONE, 2015)

How the values were obtained:
[1] = tested on: ER stress response proteins in MIA PaCa-2 cells; experiment: Western blot of ER stress response proteins; type: cell-based, human
Experimental: (§1) PANC-1, MIA PaCa-2 cells were treated with PA (0–30 μM) for 10 min, 30 min or 24 h, respectively. Whole protein extracts isolated from cells and tumor tissues were prepared and western blot analysis with anti-cleaved PARP, anti-XBP-1s, anti-ATF6, anti-ATF4, anti-Hsp70, anti-CHOP, anti-phospho-eIF2α or anti-eIF2α antibodies were performed as previously described. Western blots were quantified with HP-Scanjet 550c and analyzed by UN-SCAN-IT software (Silk Scientific, Orem, UT). Three independent experiments were done for all the immunoblot studies and quantitative data composed of all the experiments with statistical analysis were added below the representative blot image.

[2] = tested on: ER stress response proteins in PANC-1 cells; experiment: Western blot of ER stress response proteins; type: cell-based, human
Experimental: as §1

[3] = tested on: MIA PaCa-2 tumor xenograft; experiment: Human pancreatic tumor xenograft experiment; type: in vivo, female nude mice; conditions: day 34; for Average tumor volume: control approximately 448 mm^3
Experimental: Animal experiments were conducted strictly in accordance with the protocol approved by the Animal Research Committee at the Methodist Hospital (protocol no. 2011–07). MIA PaCa-2 cells (3x10^6) in 100 μl DPBS were implanted subcutaneously in the right flank on the ventral side of the 6 weeks old female nude mice (Harlan, Indianapolis, IN, USA). When tumors became palpable after 1–3 weeks (40–60 mm^3), animals were randomly assigned into three groups (n = 15) and received intraperitoneal (i.p.) injection 3 times per week of vehicle or PA (25 mg kg^-1 and 50 mg kg^-1) of body weight for additional 5 weeks. Tumor sizes were measured 3 times per week with microcalipers and the tumor volumes were calculated with the standard formula: tumor volume (mm^3) = L x W^2 x 0.5, where L is the length and W is the width of the tumor. At the end of the experiment (Day 35), the mice were euthanized by CO2 inhalation. The tumors were harvested and fixed in 10% neutral-buffered formalin at 4°C for 24 h or snap frozen and stored separately in liquid nitrogen.

[4] = 25 mg kg^-1 i.p. 3 times per week
[5] = 50 mg kg^-1 i.p. 3 times per week

SMILES: C=C(CC[C@@H](C(=O)O)[C@H]1[C@H](O)C[C@@]2(C)C3=C(CC[C@]12C)[C@@]1(C)CC[C@H](OC(C)=O)C(C)(C)[C@@H]1CC3)C(C)C [PA, Pachymic acid]
- PA-phosphorylated eIF2α vs control ([1]; MIA PaCa-2, 30 μM PA, 10 min): ~3 fold
- Activation of XBP1 and ATF4 (protein level) ([1]; MIA PaCa-2, PA 0–30 μM, 24 h): significantly activated
- PA-phosphorylated eIF2α vs control ([2]; PANC-1, 30 μM PA, 10 min): ~2 fold
- Activation of XBP1 and ATF4 (protein level) ([2]; PANC-1, PA 0–30 μM, 24 h): significantly activated
- Inhibition of tumor volume vs control [3, 4]: ~75%
- Average tumor volume [3, 4]: about 112 mm^3
- Inhibition of tumor volume vs control [3, 5]: ~80%
- Average tumor volume [3, 5]: ~89 mm^3
